Test results reported in paper PMC8179336, “Impact of sphingosine and acetylsphingosines on the aggregation and toxicity of metal-free and metal-treated amyloid-β” (Chemical Science, 2020).

Molecular target: T1, amyloid-β (Aβ40) (Homo sapiens, UniProt P05067)
T1 construct: gene APP; Aβ40
Experiment: ITC and 2D 1H-15N SOFAST-HMQC NMR (below and above the CAC)
Assay type: binding

T1 sequence (P05067 672-711 limits assumed): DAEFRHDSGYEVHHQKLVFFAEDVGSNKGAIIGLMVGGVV

Row | Structure (SMILES) | ITC and 2D 1H-15N SOFAST-HMQC NMR (below and above the CAC)
1 | CCCCCCCCCCCCC/C=C/[C@@H](O)[C@@H](N)CO [SP, (2S,3R)-2-aminooctadec-4-trans-ene-1,3-diol] | For the association of SP with Aβ, an endothermic isotherm was recorded with negative Gibbs free energy change
2 | CCCCCCCCCCCCC/C=C/[C@@H](O)[C@H](CO)NC(C)=O [N-Ac-SP, (2S,3R,4E)-2-(acetylamino)-4-octadecene-1,3-diol] | Interactions between the two acetylsphingosines and Aβ exhibited spontaneous complexation showing an endothermic process
3 | CCCCCCCCCCCCC/C=C/[C@H](OC(C)=O)[C@@H](N)CO [3-O-Ac-SP, (2S,3S,E)-2-amino-1-hydroxyoctadec-4-en-3-yl acetate] | These observations indicate weak and nonspecific interactions of both N-Ac-SP and 3-O-Ac-SP towards Aβ.
